Data reported in paper PMC6874057, “Synthesis of Chalcone Derivatives: Inducing Apoptosis of HepG2 Cells via Regulating Reactive Oxygen Species and Mitochondrial Pathway” (Frontiers in Pharmacology, 2019).

Columns and labels:
Assay type in all cases: cell-based, human
[1] = tested on: mitochondrial membrane potential in HepG2 cells; test: Mitochondrial membrane potential by JC-1 probe; conditions: a14 50 µM
Method: JC-1 probe was used to detect changes in MMP. Firstly, HepG2 cells (3 × 10^5 cells/well) were seeded into a six-well plate overnight for adherence, and then treated with various concentrations of a14 for 48 h. Next, the cells were treated with JC-1 (2.5 µg/ml) at 37°C for 10 min in the dark and rinsed three times with PBS. Then, the six-well plate was placed under the fluorescence microscope (excitation 480/30× nm, emission 515 nm) to observe the fluorescence color and intensity of JC-1 in the cells. In addition, HepG2 cells (3 × 10^5 cells/well) were inoculated on another six-well plate overnight to allow adherence, and then treated with a14 (50 µM) for 0, 12, 24, 36, and 48 h, adding CCCP (without a14) for 20 min to completely lose the mitochondrial membrane potential. Cells were then incubated with JC-1 (2.5 µg/ml) at 37°C in the dark for 10 min and rinsed with PBS for three times. Fluorescence intensity of residual JC-1 in cells was measured by Beckman Coulter flow cytometer (FITC, 525/40BP). The data obtained was analyzed by CytExpert 2.0 software imbedded in the flow cytometry.

HepG2 cells [2] = test: Annexin V-Alexa Fluor 647/PI staining, flow cytometry; conditions: 48 h
Method: HepG2 cells were seeded into six-well plates (3 × 10^5/well) overnight to allow the cells to grow adherently and then incubated with a14 at the concentrations of 0, 30, 40, 50, 60 or 70 µM for 48 h. In order to assess apoptosis, the double Annexin V-Alexa Fluor 647/PI (Beijing Solarbio Science & Technology Co., Ltd) immunofluorescence labeling method was used. After the cells were collected by centrifugation, 5 µl of Annexin V-Alexa Fluor 647 and 10 µl of PI solution (20 ug/ml) were added to each well. The cells were mixed and incubated at room temperature for 15 min in the dark and then mixed with 400 µl of PBS. Then, a Beckman Coulter flow cytometer (Beckman Coulter, Inc. California) was used to monitor the fluorescence. Ten thousand events were collected for each sample, and the data were analyzed via Flow Jo-V10 software.

HepG2 cells [3] = test: Inhibition curve of a14 on HepG2 cells (MTT, 24, 48, 72 h); conditions: in words
Method: HepG2 cells (5 × 10^3 cells/well) were seeded into the 96-well plates and kept to attach overnight. […] After the incubation time, 10 µl MTT was added to each well, and the culture was continued in a sterile incubator at 37°C for 4 h under the environment of 5% CO2. Then, the supernatant medium was discarded, and the solid was dissolved in 200 µl DMSO. Then, a multifunction microplate reader (Bio-Rad Laboratories, Shanghai, China) was applied to record the absorbance at 490 nm. Cell growth inhibition rates at different concentrations were calculated and plotted using Origin Pro8 software. Each set of data represented the average value of three independent experiments.

HL-60 = test: MTT cell viability assay, HL-60; conditions: Homo sapiens, HL-60, 48 h, mean ± SE
Method: (§1) HeLa, A549, HepG2, HL-60, and WI-38 cell lines were incubated in DMEM solution containing 10% FBS for 48 h. The incubated tumor cells were seeded into 96-well plates (5 × 10^3 cells/well) to make them attach for 12 h. Afterwards, the cells were processed with the various concentrations of the synthetic compounds and 5-FU for 48 h. After removing the cell culture supernatant, 10 µl MTT (5 mg/ml) solution was dripped into the cells to generate a formazan product, which were dissolved by dimethyl sulfoxide (DMSO) 4 h later. Multifunction microplate reader (Bio-Rad Laboratories, Shanghai, China) was adopted to measure the absorbance at the wave length of 490 nm. The IC50 (the lowest drug concentration causing 50% of the tumor cells inhibition) was then calculated using GraphPad Prism Software (version 5.02) and used to indicate the cytotoxic effect of the target compounds on the selected tumor cells.

WI-38 = test: MTT cell viability assay, normal cell line WI-38; conditions: Homo sapiens, WI-38, 48 h, normal cells, mean ± SE
Method: as §1

Bcl-2 in HepG2 cells = test: Western blot, Bcl-2; conditions: different concentrations, 48 h, dose-dependent; in words
Method: (§2) HepG2 cells (3 × 10^5 cells/well) were seeded into a six-well plate overnight for adherence, and then treated with a14 (0, 30, 40, 50, 60, and 70 µM) for 48 h. After the cells were collected by centrifugation, they were lysed with the radio immunoprecipitation assay (RIPA) buffer (high) containing 50 mM Tris (pH = 7.4), 150 mM NaCl, 1% TritonX-100, 1% sodium deoxycholate, 0.1% sodium dodecyl sulfate (SDS), 2 mM sodium pyrophosphate, 25 mM β-glycerophosphate, 1 mM ethylenediaminetetraacetic acid (EDTA), 1 mM Na3VO4, and 0.5 ug/ml leupeptin (Beijing Solarbio Science & Technology Co., Ltd.).The extract was then centrifuged at 12,000 rpm for 30 min and the total protein concentration was quantified using the BCA kit (Beijing Solarbio Science & Technology Co., Ltd.). The protein extracts were mixed with the SDS-PAGE protein loading buffer (Beijing Solarbio Science & Technology Co., Ltd.) and then boiled in 100°C water bath for 10 min. The gel was gelatinized using an SDS Gel Kit (Beijing Solarbio Science & Technology Co., Ltd.) and protein extracts were separated by protein SDS-polyacrylamide gel electrophoresis and transferred to Immobilon-NC Membrane (Beijing Solarbio Science & Technology Co., Ltd.). […]

Caspase 3 in HepG2 cells = test: Western blot, Caspase 3; conditions: 48 h, compared to the control group; in words
Method: as §2

PARP in HepG2 cells = test: Western blot, PARP and cleaved PARP; conditions: 48 h, compared to the control group; in words
Method: as §2

IC50 (HL-60): 121 ± 3.58 µM
Compound: COc1cc(/C=C/C(=O)c2ccc(O)c(C(N)=O)c2)cc(OC)c1OC [a14]
JC-1 (FITC), right of the gate line (green fluorescence) ([1]; 48 h (untreated 50.08%)): 91.94%
JC-1 fluorescence colour under the fluorescence microscope ([1]; 48 h, in words): almost all cells had shown green fluorescence
Early apoptosis (HepG2 cells [2]; a14 30 µM): 3.10%
Late apoptosis (HepG2 cells [2]; a14 30 µM): 9.45%
increase of percentage of early apoptosis compared with the untreated group (HepG2 cells [2]; a14 50 µM): 28.35%
increase of percentage of late apoptosis compared with the untreated group (HepG2 cells [2]; a14 50 µM): 13.51%
Early apoptosis (HepG2 cells [2]; a14 70 µM): 28.62%
Late apoptosis (HepG2 cells [2]; a14 70 µM): 32.89%
inhibitory activities on HepG2 cells (HepG2 cells [3]; 24, 48, 72 h, different concentrations): dose- and time-dependent manner
growth inhibition effect on HepG2 cells (HepG2 cells [3]; action time 48 or 72 h): significantly improved
cytotoxic effect on HepG2 cells (HepG2 cells [3]; action time less than 24 h): relatively weak
IC50 (WI-38): 121.3 ± 0.87 µM
expression of anti-apoptotic proteins (Bcl-2) (Bcl-2 in HepG2 cells): down-regulated
expression level of Caspases 3 (Caspase 3 in HepG2 cells): decrease
expression level of PARP (PARP in HepG2 cells): decrease
level of cleaved PARP proteins (PARP in HepG2 cells): increase
